The supplement of paper PMC11061612

Tests used:
Experiment in all cases: combination Emax (second highest fraction inhibited in the dose matrix, 72 h); higher = more inhibition; extreme values may be limits of the assay
[1] = test system: SW837 (Colorectal Carcinoma)
How it was run: (§1)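 Bliss excess equals the observed combination effect minus the expected value EA + EB − EA·EB, where EA and EB are the effects of each agent alone. Combination Emax is the second-highest inhibition within the matrix. Inhibition was scaled from CellTiter-Glo 2.0 luminescence, with 0 set by vehicle wells and 1 by blank wells, after 72 hours of two-drug dosing of cells plated in 1536-well plates.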

WM-115 (Melanoma) = test system: WM-115 (Melanoma)
How it was run: as §1

[2] = test system: TE-6 (Esophageal Squamous Cell Carcinoma)
How it was run: as §1

[3] = test system: MKN28 (Gastric Carcinoma)
How it was run: as §1

[4] = test system: KYSE-180 (Esophageal Squamous Cell Carcinoma)
How it was run: as §1

[5] = test system: TOV-112D (Ovarian Carcinoma)
How it was run: as §1

WIL2-NS (Non-Cancerous) = test system: WIL2-NS (Non-Cancerous)
How it was run: as §1

[6] = test system: MFM-223 (Breast Carcinoma)
How it was run: as §1

[7] = test system: EVSA-T (Breast Carcinoma)
How it was run: as §1

[8] = test system: MOLT-16 (T-Lymphoblastic Leukemia)
How it was run: as §1

TC-71 (Ewing's Sarcoma) = test system: TC-71 (Ewing's Sarcoma)
How it was run: as §1

[9] = test system: SU-DHL-8 (B-Cell Non-Hodgkin's Lymphoma)
How it was run: as §1

[10] = test system: BFTC-905 (Bladder Carcinoma)
How it was run: as §1

[11] = test system: HL-60 (Acute Myeloid Leukemia)
How it was run: as §1

NCI-H2818 (Mesothelioma) = test system: NCI-H2818 (Mesothelioma)
How it was run: as §1

[12] = test system: MS751 (Cervical Carcinoma)
How it was run: as §1

[13] = test system: DiFi (Colorectal Carcinoma)
How it was run: as §1

[14] = test system: CAMA-1 (Breast Carcinoma)
How it was run: as §1

[15] = test system: DND-41 (T-Lymphoblastic Leukemia)
How it was run: as §1

[16] = test system: L-540 (Hodgkin's Lymphoma)
How it was run: as §1

Row | Compound | combination Emax [1] | combination Emax (WM-115 (Melanoma)) | combination Emax [2] | combination Emax [3] | combination Emax [4] | combination Emax [5] | combination Emax (WIL2-NS (Non-Cancerous)) | combination Emax [6] | combination Emax [7] | combination Emax [8] | combination Emax (TC-71 (Ewing's Sarcoma)) | combination Emax [9] | combination Emax [10] | combination Emax [11] | combination Emax (NCI-H2818 (Mesothelioma)) | combination Emax [12] | combination Emax [13] | combination Emax [14] | combination Emax [15] | combination Emax [16]
1 | CC1(C)CCC(CN2CCN(c3ccc(C(=O)NS(=O)(=O)c4ccc(NCC5CCOCC5)c([N+](=O)[O-])c4)c(Oc4cnc5[nH]ccc5c4)c3)CC2)=C(c2ccc(Cl)cc2)C1 [Venetoclax] + COc1cc(Nc2ncc3c(n2)-c2ccc(Cl)cc2C(c2c(F)cccc2OC)=NC3)ccc1C(=O)O [Alisertib] (first compound max 1 µM, 7x7, partner max 10 µM) | 0.308 | 0.379 | 0.527 | 0.245 | 0.377 | 0.684 | 0.825 | 0.849 | 0.598 | 1 | 0.855 | 0.83 | 0.671 | 0.923 | 0.36 | 0.724 | 0.559 | 0.341 | 0.947 | 0.89
2 | CC1(C)CCC(CN2CCN(c3ccc(C(=O)NS(=O)(=O)c4ccc(NCC5CCOCC5)c([N+](=O)[O-])c4)c(Oc4cnc5[nH]ccc5c4)c3)CC2)=C(c2ccc(Cl)cc2)C1 [Venetoclax] + C[C@@H]1COCCN1C2=NC(=NC(=C2)C3(CC3)[S@](=N)(=O)C)C4=C5C=CNC5=NC=C4 [AZD6738] (first compound max 1 µM, 7x7, partner max 10 µM) | 0.348 | 0.524 | 0.67 | 0.488 | 0.638 | 0.656 | 0.997 | 0.752 | 0.378 | 1 | 0.954 | 0.99 | 0.835 | 0.933 | 0.394 | 0.424 | 0.81 | 0.41 | 0.987 | 0.959
3 | CC1(C)CCC(CN2CCN(c3ccc(C(=O)NS(=O)(=O)c4ccc(NCC5CCOCC5)c([N+](=O)[O-])c4)c(Oc4cnc5[nH]ccc5c4)c3)CC2)=C(c2ccc(Cl)cc2)C1 [Venetoclax] + C[C@@H](Nc1cc(F)cc(F)c1)c1cc(C(=O)N(C)C)cc2c(=O)cc(N3CCOCC3)oc12 [AZD8186] (first compound max 1 µM, 7x7, partner max 3 µM) | 0.0406 | 0.447 | 0.289 | 0.115 | 0.107 | 0.102 | 0.772 | 0.11 | 0.79 | 0.629 | 0.147 | 0.254 | 0.108 | 0.942 | 0.129 | 0.169 | 0.178 | 0.434 | 0.921 | 0.661
4 | CC1(C)CCC(CN2CCN(c3ccc(C(=O)NS(=O)(=O)c4ccc(NCC5CCOCC5)c([N+](=O)[O-])c4)c(Oc4cnc5[nH]ccc5c4)c3)CC2)=C(c2ccc(Cl)cc2)C1 [Venetoclax] + Cc1cc2ncnn2cc1Nc1ncc2c(n1)n(C1CCOCC1)c(=O)n2C [AZD7648] (first compound max 1 µM, 7x7, partner max 10 µM) | 0.102 | 0.238 | 0.432 | 0.229 | 0.142 | 0.315 | 0.77 | 0.161 | 0.305 | 0.855 | 0.262 | 0.354 | 0.207 | 0.778 | 0.352 | 0.191 | 0.246 | 0.228 | 0.885 | 0.787
5 | CC1(C)CCC(CN2CCN(c3ccc(C(=O)NS(=O)(=O)c4ccc(NCC5CCOCC5)c([N+](=O)[O-])c4)c(Oc4cnc5[nH]ccc5c4)c3)CC2)=C(c2ccc(Cl)cc2)C1 [Venetoclax] + Cn1cnc2c(F)c(Nc3ccc(Br)cc3Cl)c(C(=O)NOCCO)cc21 [Selumetinib] (first compound max 1 µM, 7x7, partner max 3 µM) | 0.297 | 0.42 | 0.319 | 0.278 | 0.0548 | 0.156 | 0.87 | 0.24 | 0.182 | 0.691 | 0.291 | 0.31 | 0.454 | 0.937 | 0.133 | 0.191 | 0.351 | 0.0815 | 0.891 | 0.493
